Here are results for three compounds from US11591335B2, “Bicyclic pesticidal compounds” (BASF SE, priority 2017, dated 2023).

Common to all, as to format: in vivo
In one data set the test system is Spodoptera Eridania. Put plainly: Southern armyworm (Spodoptera Eridania), sprayed lima bean plants. As to conditions: 96 h, larvae, 4 days after treatment, read-out: mortality in comparison with untreated controls. The procedure: The active compounds were formulated by a Tecan liquid handler in 100% cyclohexanone as a 10,000 ppm solution supplied in tubes. The 10,000 ppm solution was serially diluted in 100% cyclohexanone to make interim solutions. These served as stock solutions for which final dilutions were made by the Tecan in 50% acetone:50% water (v/v) into 10 or 20 ml glass vials. A nonionic surfactant (Kinetic®) was included in the solution at a volume of 0.01% (v/v). The vials were then inserted into an automated electrostatic sprayer equipped with an atomizing nozzle for application to plants/insects.
Lima bean plants (variety Sieva) were grown 2 plants to a pot and selected for treatment at the 1st true leaf stage. Test solutions were sprayed onto the foliage by an automated electrostatic plant sprayer equipped with an atomizing spray nozzle. The plants were dried in the sprayer fume hood and then removed from the sprayer. Each pot was placed into perforated plastic bags with a zip closure. About 10 to 11 armyworm larvae were placed into the bag and the bags zipped closed. Test plants were maintained in a growth room at about 250C and about 20-40% relative humidity for 4 days, avoiding direct exposure to fluorescent light (24 hour photoperiod) to prevent trapping of heat inside the bags. Mortality and reduced feeding were assessed 4 days after treatment, compared to untreated control plants.

Another data set has as its system Anthonomus grandis. Put plainly: Boll weevil (Anthonomus grandis) control, microtiter plate insect diet test. As to conditions: 120 h, egg and larval mortality after 5 days, read-out: mortality in comparison with untreated controls. The procedure:
For evaluating control of boll weevil (Anthonomus grandis) the test unit consisted of 96-well-microtiter plates containing an insect diet and 5-10 A. grandis eggs.
The compounds were formulated using a solution containing 75% v/v water and 25% v/v DMSO. Different concentrations of formulated compounds were sprayed onto the insect diet at 5 μl, using a custom built micro atomizer, at two replications.
After application, microtiter plates were incubated at about 25±1° C. and about 75±5% relative humidity for 5 days. Egg and larval mortality was then visually assessed.

The next data set deals with Heliothis virescens. Nature of the data set: Tobacco budworm (Heliothis virescens) control, microtiter plate insect diet test. Conditions: 120 h, egg and larval mortality after 5 days, read-out: mortality in comparison with untreated controls. The procedure:
For evaluating control of tobacco budworm (Heliothis virescens) the test unit consisted of 96-well-microtiter plates containing an insect diet and 15-25 H. virescens eggs.
The compounds were formulated using a solution containing 75% v/v water and 25% v/v DMSO. Different concentrations of formulated compounds were sprayed onto the insect diet at 10 μl, using a custom built micro atomizer, at two replications.
After application, microtiter plates were incubated at about 28±1° C. and about 80±5% relative humidity for 5 days. Egg and larval mortality was then visually assessed.

Another data set has as its system Myzuspersicae. Nature of the data set: Green peach aphid (Myzuspersicae) control through systemic means, artificial diet under membrane. Conditions: Myzus persicae, 72 h, adult aphids on treated diet, 3 days, read-out: mortality in comparison with untreated controls. The text has this: For evaluating control of green peach aphid (Myzuspersicae) through systemic means the test unit consisted of 96-well-microtiter plates containing liquid artificial diet under an artificial membrane.
The compounds were formulated using a solution containing 75% v/v water and 25% v/v DMSO. Different concentrations of formulated compounds were pipetted into the aphid diet, using a custom built pipetter, at two replications.
After application, 5-8 adult aphids were placed on the artificial membrane inside the microtiter plate wells. The aphids were then allowed to suck on the treated aphid diet and incubated at about 23±1° C. and about 50±5% relative humidity for 3 days. Aphid mortality and fecundity was then visually assessed.

A further data set concerns Plutella xylostella. Put plainly: Diamond back moth (Plutella xylostella), cabbage leaf dip test. As to conditions: foliar, 3rd instar larvae, 72 hours after treatment, read-out: mortality in comparison with untreated controls. The procedure: (§1) The active compound is dissolved at the desired concentration in a mixture of 1:1 (vol:vol) distilled water: acetone. Surfactant (Kinetic® HV) is added at a rate of 0.01% (vol/vol). The test solution is prepared at the day of use.
Leaves of cabbage were dipped in test solution and air-dried. Treated leaves were placed in petri dishes lined with moist filter paper and inoculated with ten 3rd instar larvae. Mortality was recorded 72 hours after treatment. Feeding damages were also recorded using a scale of 0-100%.

The next data set concerns Bemisia argentifolii. Put plainly: Silverleaf whitefly (Bemisia argentifolii), sprayed cotton plants. As to conditions: 72 h, adults, 3 days after treatment, read-out: mortality in comparison with untreated controls. The procedure:
The active compounds were formulated by a Tecan liquid handler in 100% cyclohexanone as a 10,000 ppm solution supplied in tubes. The 10,000 ppm solution was serially diluted in 100% cyclohexanone to make interim solutions. These served as stock solutions for which final dilutions were made by the Tecan in 50% acetone:50% water (v/v) into 5 or 10 ml glass vials. A nonionic surfactant (Kinetic®) was included in the solution at a volume of 0.01% (v/v). The vials were then inserted into an automated electrostatic sprayer equipped with an atomizing nozzle for application to plants/insects.
Cotton plants at the cotyledon stage (one plant per pot) were sprayed by an automated electrostatic plant sprayer equipped with an atomizing spray nozzle. The plants were dried in the sprayer fume hood and then removed from the sprayer. Each pot was pla-ced into a plastic cup and about 10 to 12 whitefly adults (approximately 3-5 days old) were introduced. The insects were collected using an aspirator and a nontoxic Tygon® tubing connected to a barrier pipette tip. The tip, containing the collected insects, was then gently inserted into the soil containing the treated plant, allowing insects to crawl out of the tip to reach the foliage for feeding. Cups were covered with a reusable screened lid. […] Mortality was assessed 3 days after treatment, compared to untreated control plants.

For another data set, the system named is Nezara viridula. Nature of the data set: Green soldier stink bug (Nezara viridula), sprayed soybean pods in Petri dishes. Conditions: 120 h, late 3rd instar, after 5 days, read-out: mortality in comparison with untreated controls. The procedure: The active compound is dissolved at the desired concentration in a mixture of 1:1 (vol:vol) distilled water: aceteone. Surfactant (Kinetic® HV) is added at a rate of 0.01% (vol/vol). The test solution is prepared at the day of use.
Soybean pods were placed in 90×50 mm glass Petri dishes lined with moist filter paper and inoculated with ten late 3rd instar N. viridula. Using a hand atomizer, an approximately 2 ml solution is sprayed into each Petri dish. Treated cups were kept at about 25-26° C. and relative humidity of about 65-70%. Percent mortality was recorded after 5 days.

The next data set relates to Nephotettix virescens. Put plainly: Rice green leafhopper (Nephotettix virescens), sprayed rice seedlings. Conditions: adults, after 72 hours, read-out: mortality in comparison with untreated controls. The procedure: Four to five-week old rice seedlings with cut upper leaf portion were cleaned and washed 24 hours before spraying. The active compounds were formulated in 1:1 acetone:water (vol:vol), and 0.01% vol/vol surfactant (Kinetic® HV) was added. Potted rice seedlings were sprayed with 5-6 ml test solution, air dried, covered with Mylar cages and inoculated with 10 adults. Treated rice plants were kept at about 28-29° C. and relative humidity of about 50-60%. Percent mortality was recorded after 72 hours.

The test system of another data set is Aphis craccivora. Nature of the data set: Cowpea aphid (Aphis craccivora), sprayed potted cowpea plants. Conditions: after 72 hours, read-out: mortality in comparison with untreated controls. The procedure: as §1
Potted cowpea plants were colonized with approximately 30-50 aphids of various stages by manually transferring a leaf tissue cut from infested plant 24 hours before application. Plants were sprayed with the test solutions using a DeVilbiss® hand atomizer at 20-30 psi (=1.38 to 2.07 bar) after the pest population has been checked. Treated plants are maintained on light carts at about 25-26° C. Percent mortality was assessed after 72 hours.

The test system of another data set is Nilaparvata lugens. Put plainly: Rice brown plant hopper (Nilaparvata lugens), sprayed rice seedlings. As to conditions: adults, after 72 hours, read-out: mortality in comparison with untreated controls. The procedure:
Four to five-week old rice seedlings were cleaned and washed 24 hours before spraying. The active compounds were formulated in 1:1 acetone:water (vol:vol) and 0.01% vol/vol surfactant (Kinetic® HV) was added. Potted rice seedlings were sprayed with 5-6 ml test solution, air dried, covered with Mylar cages and inoculated with 10 adults. Treated rice plants were kept at about 28-29° C. and relative humidity of about 50-60%. Percent mortality was recorded after 72 hours.

The next data set deals with Megoura viciae. Put plainly: Vetch aphid (Megoura viciae) control, broad bean leaf disk test. Conditions: foliar, 120 h, adult aphids on treated leaf disks, 5 days, read-out: mortality in comparison with untreated controls. The procedure:
For evaluating control of vetch aphid (Megoura viciae) through contact or systemic means the test unit consisted of 24-well-microtiter plates containing broad bean leaf disks.
The compounds were formulated using a solution containing 75% v/v water and 25% v/v DMSO. Different concentrations of formulated compounds were sprayed onto the leaf disks at 2.5 μl, using a custom built micro atomizer, at two replications.
After application, the leaf disks were air-dried and 5-8 adult aphids placed on the leaf disks inside the microtiter plate wells. The aphids were then allowed to suck on the treated leaf disks and incubated at about 23±1° C. and about 50±5% relative humidity for 5 days. Aphid mortality and fecundity was then visually assessed.

For the next data set, the system named is Chilo suppressalis. Nature of the data set: Striped stem borer (Chilo suppressalis), sprayed petriplates with rice straw. Conditions: 300 ppm; first-instar larvae, 72 hours after treatment. The procedure:
as §1
Ten first-instar larvae are allowed to crawl on sprayed petriplates for 1 minute and then provided with one freshly cut rice straw per plate. After 10 minutes when all of the larvae are inside the straw will then be covered with Petri lid. Percent mortality is recorded after 72 hours after treatment.

`CCS(=O)(=O)c1ccc(-n2cnc(C(F)(F)F)n2)nc1-c1cn2c(=O)n(C)c(C(F)(F)F)cc2n1` [I-1-1, 2-[3-ethylsulfonyl-6-[3-(trifluoromethyl)-1,2,4-triazol-1-yl]-2-pyridyl]-6-methyl-7-(trifluoromethyl)imidazo[1,2-c]pyrimidin-5-one]: the mortality at 300 ppm in the data set on Spodoptera Eridania, in the data set with Plutella xylostella and with Bemisia argentifolii was above 75% each time. Also, the mortality at 2500 ppm with Anthonomus grandis, in the data set on Heliothis virescens and with Myzuspersicae was above 75% throughout.
On to `CCS(=O)(=O)c1cc(N2CCCC2=O)cnc1-c1cn2c(=O)n(C)c(C(F)(F)F)cc2n1` [I-1-3, 2-[3-ethylsulfonyl-5-(2-oxopyrrolidin-1-yl)-2-pyridyl]-6-methyl-7-(trifluoromethyl)imidazo[1,2-c]pyrimidin-5-one], for which the mortality at 300 ppm in the data set on Nezara viridula, in the data set with Spodoptera Eridania, in the data set on Nephotettix virescens, with Aphis craccivora and in the data set with Nilaparvata lugens was above 75% throughout. Moreover, the mortality at 2500 ppm with Anthonomus grandis, in the data set with Heliothis virescens, in the data set on Myzuspersicae and in the data set with Megoura viciae was above 75% throughout.
Consider `CCS(=O)(=O)c1cc(-c2ncccc2F)cnc1-c1cn2c(=O)n(C)c(C(F)(F)F)cc2n1` [I-1-4], for which the “mortality in comparison with untreated controls” value in the data set with Chilo suppressalis is reported as “over 75%”.

The mortality is the share of the test organisms that died.
